These results are taken from PubChem BioAssay AID977613 (Broad Institute, 2014).

SMILES strings stand for the structures. The source made the active and inactive calls. The rule behind the calls is not given here.

In the test the test system is Broad 7084-01 inhibitor HTS, set 2. The experiment in a line: single-concentration hits, screen 7084 set 2 (AID 977613).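 Note: host cells are infected with parasite promastigotes that become internalized.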

For the compound `O=C(C[C@H]1CC[C@H]2[C@@H](COC[C@H](O)CN2S(=O)(=O)c2cccc(Cl)c2)O1)Nc1ccc(-c2ccccc2)cc1`, the active concentration was > 10 µM (inactive).

On to `Cc1noc(C)c1NC(=O)N1C[C@@H](O)COC[C@@H]2O[C@H](CC(=O)NCC3CCCCC3)CC[C@H]21`, for which the active concentration is > 10 µM (inactive).

Regarding `O=C(C[C@H]1CC[C@@H]2[C@H](COC[C@@H](O)CN2CC2CC2)O1)NCC1CC1`, the active concentration is > 10 µM (inactive).

Take `COc1cccc(C#Cc2ccc([C@H]3[C@@H](CO)N4C(=O)CN(C(=O)Cc5cccnc5)C[C@H]34)cc2)c1`: the active concentration is > 10 µM (inactive).

As to `OC[C@@H]1[C@H](c2ccc(C#CC3(O)CCCC3)cc2)[C@@H]2CN(Cc3cncnc3)CCCCN12`, the active concentration was > 10 µM (inactive).

Consider `COCC(=O)N1CC[C@@H]2[C@H]1c1cc(-c3ccc(F)cc3)ccc1N(C)[C@@H]2CO`, for which the active concentration is > 10 µM (inactive).

As to `CC(=O)N1[C@H](CO)[C@@H](c2ccccc2)C12CN(C(=O)Cc1ccccc1)C2`, the active concentration was > 10 µM (inactive).

As for `O=C(CC1CC1)N1[C@H](CO)[C@@H]2c3ccccc3N(S(=O)(=O)c3ccccc3F)C[C@@H]21`, the active concentration is > 10 µM (inactive).

In the case of `O=C(C1CC1)N1CC2(C1)[C@H](c1ccccc1)[C@@H](CO)N2Cc1nccs1`, the active concentration is > 10 µM (inactive).

Regarding `Cc1cccc(S(=O)(=O)N2CC[C@@H]3[C@H]2c2cc(C#Cc4ccccc4F)ccc2N[C@@H]3CO)c1`, the active concentration is > 10 µM (inactive).

As for `O=S(=O)(c1ccc(F)cc1)N1C[C@H]2[C@@H](c3ccccc31)[C@H](CO)N2Cc1ccc2c(c1)OCO2`, the active concentration was > 10 µM (inactive).

As for `C/C=C/c1ccc([C@@H]2[C@@H](CO)N(C(=O)C3CCOCC3)C23CN(C(=O)NC(C)C)C3)cc1`, the active concentration is > 10 µM (inactive).

Regarding `CCC(=O)N1[C@@H]2Cn3c(ccc(-c4ccncc4)c3=O)[C@H]1[C@@H](C(=O)NC1Cc3ccccc3C1)[C@@H]2CO`, the active concentration is > 10 µM (inactive).

Consider `CC(C)NC(=O)N1CC2(C1)[C@H](c1ccccc1)[C@@H](CO)N2CCC(F)(F)F`, for which the active concentration was > 10 µM (inactive).

Consider `CN1CCN(C(=O)C[C@@H]2CC[C@H]3[C@@H](COC[C@@H](O)CN3CC3CC3)O2)CC1`, for which the active concentration was > 10 µM (inactive).

On to `CN(C)CC(=O)N1CC2(C1)[C@@H](c1ccccc1)[C@@H](CO)N2C(=O)C1CC1`, for which the active concentration is > 10 µM (inactive).

On to `O=C(NCC(F)(F)F)[C@@H]1[C@@H](CO)[C@@H]2Cn3c(cccc3=O)[C@H]1N2CC1CCOCC1`, for which the active concentration was > 10 µM (inactive).

Consider `COc1cccc(C#Cc2ccc([C@@H]3[C@@H](CO)N4C(=O)CN(C(=O)Cc5cccnc5)C[C@H]34)cc2)c1`, for which the active concentration was > 10 µM (inactive).

Turning to `Cc1ccc(CN2CC(=O)N3[C@H](C2)[C@@H](c2ccc(-c4ccccc4F)cc2)[C@@H]3CO)cc1`, the active concentration was > 10 µM (inactive).

As for `O=C(c1ccccc1)N1[C@H](CO)[C@H](c2ccccc2)C12CN(Cc1nccs1)C2`, the active concentration was > 10 µM (inactive).

On to `COC(=O)c1ccc(CN2CC(=O)N3[C@H](CO)[C@@H](c4ccc(-c5cccnc5)cc4)[C@H]3C2)cc1`, for which the active concentration is > 10 µM (inactive).

On to `CCCNC(=O)N1[C@H](CO)[C@@H]2c3ccccc3N(C(=O)C3CCC3)C[C@@H]21`, for which the active concentration is > 10 µM (inactive).

As to `O=C(C1CCCCC1)N1C[C@H]2[C@@H](c3ccccc31)[C@H](CO)N2C(=O)Cc1ccccn1`, the active concentration is > 10 µM (inactive).

In the case of `COc1ccccc1-c1ccccc1[C@H]1[C@H](C#N)N(C(=O)CN(C)C)[C@H]1CO`, the active concentration is > 10 µM (inactive).

On to `O=C(C[C@H]1CC[C@@H]2[C@H](COC[C@@H](O)CN2C(=O)c2ccncc2)O1)NCc1ccc(-c2ccccc2)cc1`, for which the active concentration is > 10 µM (inactive).

Take `O=S(=O)(c1cccs1)N1CCCCN2[C@H](C1)[C@H](c1ccc(/C=C/c3ccccc3)cc1)[C@@H]2CO`: the active concentration was > 10 µM (inactive).

`O=C(C1CCOCC1)N1CC(=O)N2[C@H](C1)[C@@H](c1ccc(C#CCc3ccccc3)cc1)[C@@H]2CO`: the active concentration is > 10 µM (inactive).

On to `CC=Cc1ccc2n(c1=O)C[C@@H]1[C@@H](CO)[C@H](C(=O)NCC)N(C(=O)CC3CC3)[C@H]21` (mixture of isomers), for which the active concentration was > 10 µM (inactive).

On to `CC1C=NC(S(=O)(=O)N2CC[C@@H]3[C@H](CO)N(C)c4ccc(-c5ccccc5F)cc4[C@@H]32)=N1` (stereo partly drawn), for which the active concentration is > 10 µM (inactive).

In the case of `O=S(=O)(c1ccccc1)N1C[C@@H]2[C@H](c3ccccc31)[C@H](CO)N2Cc1ccccn1`, the active concentration is > 10 µM (inactive).

Turning to `COC(=O)c1ccc(CN2CC(=O)N3[C@H](CO)[C@H](c4ccc(-c5cccnc5)cc4)[C@H]3C2)cc1`, the active concentration was > 10 µM (inactive).

On to `Cc1ccccc1-c1ccccc1[C@@H]1[C@H](C#N)N(C(=O)c2cccc(F)c2)[C@H]1CO`, for which the active concentration is > 10 µM (inactive).

As for `COc1cccc(-c2ccc3c(c2)[C@@H]2[C@@H](CCN2S(=O)(=O)c2cn(C)cn2)[C@@H](CO)N3)c1`, the active concentration was > 10 µM (inactive).

Turning to `CN1CCN(C(=O)C[C@H]2CC[C@@H]3[C@H](COC[C@@H](O)CN3C(=O)C3CC3)O2)CC1`, the active concentration was > 10 µM (inactive).

`O=C(C[C@@H]1CC[C@H]2[C@@H](COC[C@@H](O)CN2C(=O)Nc2ccc(Cl)cc2)O1)NCC1CC1`: the active concentration is > 10 µM (inactive).

On to `COc1cccc(S(=O)(=O)N2CC3(CCN(C)CC3)c3c([nH]c4cc(OC)ccc34)[C@@H]2CO)c1`, for which the active concentration is > 10 µM (inactive).

For `COc1ccc2c3c([nH]c2c1)[C@H](CO)N(C)CC31CCN(S(=O)(=O)c2ccc(C)cc2)CC1`, the active concentration is > 10 µM (inactive).

For `C/C=C/c1ccc([C@@H]2[C@@H](CO)N3C(=O)CN(S(=O)(=O)c4ccccc4)C[C@H]23)cc1`, the active concentration was > 10 µM (inactive).

Consider `CCCNC(=O)N1CC2(C1)CN(Cc1ccc(F)cc1)[C@H](CO)c1[nH]c3cc(OC)ccc3c12`, for which the active concentration is > 10 µM (inactive).

For `Cc1cc(C(=O)Nc2ccc3c(c2)C(=O)N(C)[C@@H]2CC[C@@H](CC(=O)NCc4ccc(-c5ccccc5)cc4)O[C@H]2CO3)no1`, the active concentration was > 10 µM (inactive).

For the compound `O=C(Nc1ccc(F)cc1)N1CC(=O)N2[C@H](CO)[C@H](c3ccc(C#Cc4cccnc4)cc3)[C@@H]2C1`, the active concentration was > 10 µM (inactive).

`CCCN1[C@@H]2c3ccc(-c4cncnc4)c(=O)n3C[C@@H]2[C@@H](CO)[C@@H]1C(=O)OC`: the active concentration was > 10 µM (inactive).

Regarding `O=C1CNC[C@H]2[C@@H](c3ccc(C4=CCCC4)cc3)[C@@H](CO)N12`, the active concentration was > 10 µM (inactive).

Regarding `O=C(C[C@H]1CC[C@@H]2[C@H](COC[C@H](O)CN2C(=O)Nc2ccc(Cl)c(Cl)c2)O1)NCc1ccc(Cl)cc1`, the active concentration was > 10 µM (inactive).

With `C/C=C/c1ccccc1[C@H]1[C@@H](CO)N(C(=O)NC2CCCCC2)[C@H]1C#N`, the active concentration was > 10 µM (inactive).

For `COc1ccccc1-c1ccc2n(c1=O)C[C@H]1[C@H](CO)[C@@H](C(=O)N3CCOCC3)[C@@H]2N1CC1CC1`, the active concentration was > 10 µM (inactive).

Turning to `COc1ccccc1CN1[C@@H]2CN(C(=O)C3CCCCC3)c3ccccc3[C@@H]2[C@@H]1CO`, the active concentration was > 10 µM (inactive).

With `O=C(C1CCOCC1)N1C[C@H]2[C@@H](c3ccccc31)[C@@H](CO)N2C(=O)Cc1ccccc1`, the active concentration is > 10 µM (inactive).

`N#C[C@@H]1[C@@H](c2ccccc2-c2ccc(F)cc2)[C@H](CO)N1C(=O)Cc1cccnc1`: the active concentration was > 10 µM (inactive).

Turning to `CN1C(=O)c2cc(NC(=O)c3ccc(F)c(F)c3)ccc2OC[C@H]2O[C@@H](CC(=O)N[C@H]3CCN(Cc4ccccc4)C3)CC[C@@H]21`, the active concentration is > 10 µM (inactive).

Take `N#C[C@@H]1[C@@H](c2ccccc2-c2cccc(F)c2)[C@@H](CO)N1C(=O)C1CC1`: the active concentration was > 10 µM (inactive).

As for `CCc1cnc(N2[C@H](C#N)[C@@H](c3ccccc3C3=CCCCC3)[C@@H]2CO)s1`, the active concentration is > 10 µM (inactive).

On to `C[C@@H](NC(=O)[C@@H]1[C@@H](CO)[C@@H]2Cn3c(cccc3=O)[C@H]1N2CCC(F)(F)F)c1ccccc1`, for which the active concentration was > 10 µM (inactive).

For the compound `COCCNC(=O)[C@@H]1[C@@H](CO)[C@@H]2Cn3c(cccc3=O)[C@H]1N2S(=O)(=O)c1ccccc1C`, the active concentration is > 10 µM (inactive).

Take `COc1ccc2c3c(n(C)c2c1)[C@H](CO)N(C(=O)Nc1ccc(F)cc1)CC31CCN(C(=O)c2ccc3c(c2)OCO3)CC1`: the active concentration was > 10 µM (inactive).

Consider `O=C(Nc1ccc(F)cc1)N1CC(=O)N2[C@H](CO)[C@H](c3ccc(C#Cc4cccnc4)cc3)[C@H]2C1`, for which the active concentration was > 10 µM (inactive).

Consider `O=C(O)[C@H]1[C@H](CO)[C@H]2Cn3c(ccc(-c4ccc(F)cc4)c3=O)[C@@H]1N2CC1CCCCC1`, for which the active concentration was > 10 µM (inactive).

For the compound `COc1ccccc1-c1ccccc1[C@H]1[C@@H](C#N)N(C(=O)CN(C)C)[C@@H]1CO`, the active concentration is > 10 µM (inactive).

Regarding `Cc1ccccc1-c1ccccc1[C@H]1[C@@H](C#N)N(C(=O)c2cccc(F)c2)[C@H]1CO`, the active concentration is > 10 µM (inactive).

For the compound `COc1ccc2c3c([nH]c2c1)[C@@H](CO)N(C(=O)Nc1c(C)noc1C)CC31CN(CC2CCOCC2)C1`, the active concentration was > 10 µM (inactive).

On to `O=C(Cc1ccccc1)N1C[C@H]2[C@@H](c3ccccc31)[C@@H](CO)N2C(=O)c1cccc(F)c1`, for which the active concentration was > 10 µM (inactive).

Turning to `OC[C@H]1[C@@H](c2ccc(C#CC3(O)CCCC3)cc2)[C@H]2CN(Cc3cncnc3)CCCCN21`, the active concentration was > 10 µM (inactive).

On to `O=C(CC1CC1)N1[C@@H]2CN(S(=O)(=O)c3ccccc3F)c3ccccc3[C@@H]2[C@@H]1CO`, for which the active concentration was > 10 µM (inactive).
